The record followed here is patent publication US10058550B2, “Methods of treating heart failure” (priority 2015, dated 2018).

Molecules are shown by their SMILES.

This test addresses human APJ receptor (Homo sapiens (Human), UniProt P35414). Kind of test: biochemical. The format is biochemical. Particulars: read-out: Activity hAPJ SPA EC50 IP. Here is the method:
The human APJ receptor was cloned by polymerase chain reaction and the gene encoding the receptor was subcloned in pFLAG-CMV™-3 expression vector (Sigma, Saint Louis, Mo. USA) in-house at Amgen. A GTPγS binding assay was performed on membranes prepared from CHO cells stably expressing human APJ receptor. The optimum experimental conditions for the concentrations of GDP, MgCl2, and NaCl in the assay buffer were initially determined. The assay was performed in assay buffer [20 mM HEPES, pH 7.5, 5 mM MgCl2, and 0.1% (w/v) BSA with 200 mM NaCl, 3 μM GDP] and membranes expressing human APJ receptor/well along with WGA PS beads. The reaction was initiated by addition of 0.2 nM [^35S]GTPγS (Perkin Elmer Life and Analytical Sciences, Waltham USA) in the absence or presence of various ligands and incubated at RT for 90 min. […] All the results presented are means of several independent experiments and analyzed by non-linear regression methods using commercially available program Prism (GraphPad, San Diego, Calif.) to obtain EC50 detailed in Table 58.

Sequence of human APJ receptor (P35414 whole entry): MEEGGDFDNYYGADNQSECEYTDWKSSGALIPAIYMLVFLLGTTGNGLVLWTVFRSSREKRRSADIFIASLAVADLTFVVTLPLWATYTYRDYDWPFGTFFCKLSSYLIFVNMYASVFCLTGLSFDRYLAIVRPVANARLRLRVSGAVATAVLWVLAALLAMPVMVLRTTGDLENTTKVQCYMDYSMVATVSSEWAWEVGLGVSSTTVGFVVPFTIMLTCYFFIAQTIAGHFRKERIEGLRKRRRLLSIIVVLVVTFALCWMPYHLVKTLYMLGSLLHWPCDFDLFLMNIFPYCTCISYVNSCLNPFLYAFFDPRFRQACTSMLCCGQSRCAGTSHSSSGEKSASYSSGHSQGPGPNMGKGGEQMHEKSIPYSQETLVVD

The term EC50 denotes the concentration needed to bring the measured effect to its halfway point. Turning to `COc1cccc(OC)c1-n1c(NS(=O)(=O)[C@H](C)[C@@H](C)c2cnc(C)cn2)nnc1-c1cccnc1` (racemic) [Example 701.0, (2R,3S)-N-(4-(2,6-dimethoxyphenyl)-5-(3-pyridinyl)-4H-1,2,4-triazol-3-yl)-3-(5-methyl-2-pyrazinyl)-2-butanesulfonamide, (2S,3R)-N-(4-(2,6-dimethoxyphenyl)-5-(3-pyridinyl)-4H-1,2,4-triazol-3-yl)-3-(5-methyl-2-pyrazinyl)-2-butanesulfonamide], the EC50 came to 2 nM. In the case of `COc1cccc(-c2nnc(NS(=O)(=O)[C@@H](C)[C@@H](OC(C)C)c3ncc(C)cn3)n2-c2c(OC)cccc2OC)n1` (single isomer, unassigned) [Example 95.0], the EC50 was 0.11 nM. For the compound `CCO[C@@H](c1ncc(C)cn1)[C@@H](C)S(=O)(=O)Nc1nnc(-c2cccnc2)n1-c1c(OC)cccc1OC` (single isomer, unassigned) [Example 108.0], the EC50 amounted to 150 nM.

Regarding `COc1cccc(OC)c1-n1c(NS(=O)(=O)[C@@H](C)Cc2ncc(F)cn2)nnc1-c1cncc(C)c1` (single isomer, unassigned) [Example 208.0], the 50% effective concentration (EC50) came to 1 nM.

In the case of `COc1cccc(OC)c1-n1c(NS(=O)(=O)[C@@H](C)Cc2ncc(F)cn2)nnc1-c1cncc(C)c1` (single isomer, unassigned) [Example 209.0], the EC50 stood at 4.9 nM. On to `COc1cccc(OC)c1-n1c(NS(=O)(=O)[C@@H](C)Cc2ncc(F)cn2)nnc1-c1cnccc1C` (single isomer, unassigned) [Example 217.0], for which the EC50 was determined as 180 nM.

As to `COc1cccc(OC)c1-n1c(NS(=O)(=O)[C@@H](C)Cc2ncc(F)cn2)nnc1-c1cnccc1C` (single isomer, unassigned) [Example 218.0], the EC50 stood at 300 nM. To `COc1cccc(OC)c1-n1c(NS(=O)(=O)[C@@H](C)Cc2ncc(F)cn2)nnc1-c1cncc(Cl)c1` (single isomer, unassigned) [Example 220.0] belongs 7.1 nM.

As to `COc1cccc(OC)c1-n1c(NS(=O)(=O)[C@@H](C)Cc2ncc(F)cn2)nnc1-c1cncc(Cl)c1` (single isomer, unassigned) [Example 221.0], the EC50 was determined as 35 nM. For `COc1cccc(OC)c1-n1c(NS(=O)(=O)[C@@H](C)[C@H](C)c2ncc(F)cn2)nnc1-c1cncc(C)c1` (single isomer, unassigned) [Example 234.0] the value was 16 nM; for `COc1cccc(OC)c1-n1c(NS(=O)(=O)[C@@H](C)[C@H](C)c2ncc(F)cn2)nnc1-c1cncc(C)c1` (single isomer, unassigned) [Example 235.0], 0.28 nM; for `COc1cccc(OC)c1-n1c(NS(=O)(=O)[C@@H](C)[C@H](C)c2ncc(F)cn2)nnc1-c1cncc(C)c1` (single isomer, unassigned) [Example 236.0], 100 nM. With `COc1cccc(OC)c1-n1c(NS(=O)(=O)[C@@H](C)[C@H](C)c2ncc(F)cn2)nnc1-c1cncc(C)c1` (single isomer, unassigned) [Example 237.0], the EC50 worked out at 14 nM. Consider `COc1cccc(OC)c1-n1c(NS(=O)(=O)[C@@H](C)[C@H](O)c2ccc(C#N)cc2)nnc1-c1cncc(C)c1` (single isomer, unassigned) [Example 248.0], for which the EC50 came out at 60 nM. With `COc1cccc(-c2nnc(NS(=O)(=O)C[C@H](O)c3ccc(F)cc3S(C)(=O)=O)n2-c2c(OC)cccc2OC)n1` (single isomer, unassigned) [Example 268.0, (R)—N-(4-(2,6-dimethoxyphenyl)-5-(6-methoxypyridin-2-yl)-4H-1,2,4-triazol-3-yl)-2-(4-fluoro-2-(methylsulfonyl)phenyl)-2-hydroxyethanesulfonamide or (S)—N-(4-(2,6-dimethoxyphenyl)-5-(6-methoxypyridin-2-yl)-4H-1,2,4-triazol-3-yl)-2-(4-fluoro-2-(methylsulfonyl)phenyl)-2-hydroxyethanesulfonamide], the EC50 was determined as 0.17 nM.

Take `COc1cccc(-c2nnc(NS(=O)(=O)[C@@H](C)[C@H](O)c3ccc(F)cc3F)n2-c2c(OC)cccc2OC)n1` (single isomer, unassigned) [Example 279.0]: the EC50 was determined as 28 nM. Consider `COc1cccc(-c2nnc(NS(=O)(=O)[C@@H](C)[C@H](O)c3ccc(F)cc3F)n2-c2c(OC)cccc2OC)n1` (single isomer, unassigned) [Example 280.0], for which the half-maximal effective concentration (EC50) is 0.27 nM. For `COc1cccc(-c2nnc(NS(=O)(=O)[C@@H](C)[C@H](O)c3ccc(F)cc3F)n2-c2c(OC)cccc2OC)n1` (single isomer, unassigned) [Example 281.0] the value was 43 nM. For `COc1cccc(-c2nnc(NS(=O)(=O)[C@@H](C)[C@H](O)c3ccc(F)cc3F)n2-c2c(OC)cccc2OC)n1` (single isomer, unassigned) [Example 282.0] the value was 0.71 nM. For the compound `COc1cccc(-c2nnc(NS(=O)(=O)[C@@H](C)[C@H](O)c3ccc(F)cc3)n2-c2c(OC)cccc2OC)n1` (single isomer, unassigned) [Example 284.0], the EC50 amounted to 13 nM. In the case of `COc1cccc(-c2nnc(NS(=O)(=O)[C@@H](C)[C@H](O)c3ccc(F)cc3)n2-c2c(OC)cccc2OC)n1` (single isomer, unassigned) [Example 285.0], the EC50 was 0.57 nM.

For `COc1cccc(-c2nnc(NS(=O)(=O)[C@@H](C)[C@H](O)c3ccc(F)cc3)n2-c2c(OC)cccc2OC)n1` (single isomer, unassigned) [Example 286.0], the EC50 amounted to 0.68 nM. For `COc1cccc(-c2nnc(NS(=O)(=O)[C@@H](C)[C@H](O)c3ccc(F)cc3)n2-c2c(OC)cccc2OC)n1` (single isomer, unassigned) [Example 287.0], the EC50 was 14 nM. Consider `COc1cccc(-c2nnc(NS(=O)(=O)[C@@H](C)[C@H](O)c3ccc(F)cc3S(C)(=O)=O)n2-c2c(OC)cccc2OC)n1` (single isomer, unassigned) [Example 289.0, (1R,2S)—N-(4-(2,6-dimethoxyphenyl)-5-(6-methoxypyridin-2-yl)-4H-1,2,4-triazol-3-yl)-1-(4-fluoro-2-(methylsulfonyl)phenyl)-1-hydroxypropane-2-sulfonamide or (1S,2R)—N-(4-(2,6-dimethoxyphenyl)-5-(6-methoxypyridin-2-yl)-4H-1,2,4-triazol-3-yl)-1-(4-fluoro-2-(methylsulfonyl)phenyl)-1-hydroxypropane-2-sulfonamide], for which the EC50 was determined as 11 nM. Take `COc1cccc(OC)c1-n1c(NS(=O)(=O)[C@@H](C)[C@H](O)c2nc(C)c(C)s2)nnc1-c1cncc(C)c1` (single isomer, unassigned) [Example 291.0]: the EC50 was found to be 1.8 nM.

Regarding `COc1cccc(OC)c1-n1c(NS(=O)(=O)[C@@H](C)[C@H](O)c2nc(C)c(C)s2)nnc1-c1cncc(C)c1` (single isomer, unassigned) [Example 292.0], the EC50 came to 0.9 nM. On to `COc1cccc(OC)c1-n1c(NS(=O)(=O)[C@@H](C)[C@H](O)c2nc(C)c(C)s2)nnc1-c1cncc(C)c1` (single isomer, unassigned) [Example 293.0], for which the EC50 came to 13 nM.

On to `COc1cccc(OC)c1-n1c(NS(=O)(=O)[C@@H](C)[C@H](O)c2nc(C)c(C)s2)nnc1-c1cncc(C)c1` (single isomer, unassigned) [Example 294.0], for which the 50% effective concentration (EC50) stood at 11 nM.

Consider `COc1cccc(OC)c1-n1c(NS(=O)(=O)[C@@H](C)[C@H](O)c2nc(C)c(C)s2)nnc1-c1cncc(C)c1` (single isomer, unassigned) [Example 295.0], for which the 50% effective concentration (EC50) was 98 nM.

Regarding `COc1cccc(OC)c1-n1c(NS(=O)(=O)[C@@H](C)[C@H](O)c2nc(C)c(C)s2)nnc1-c1cncc(C)c1` (single isomer, unassigned) [Example 296.0], the EC50 was 4.7 nM. As for `COc1cnc([C@@H](O)[C@H](C)S(=O)(=O)Nc2nnc(-c3cncc(C)c3)n2-c2c(OC)cccc2OC)cn1` (single isomer, unassigned) [Example 305.0], the EC50 came to 0.39 nM. For `COc1cnc([C@@H](O)[C@H](C)S(=O)(=O)Nc2nnc(-c3cncc(C)c3)n2-c2c(OC)cccc2OC)cn1` (single isomer, unassigned) [Example 306.0], the EC50 stood at 20 nM. As to `COc1cnc([C@@H](O)[C@H](C)S(=O)(=O)Nc2nnc(-c3cncc(C)c3)n2-c2c(OC)cccc2OC)cn1` (single isomer, unassigned) [Example 308.0], the EC50 turned out to be 76 nM. `COc1cnc([C@@H](O)[C@H](C)S(=O)(=O)Nc2nnc(-c3cncc(C)c3)n2-c2c(OC)cccc2OC)cn1` (single isomer, unassigned) [Example 309.0]: the EC50 was found to be 9.5 nM. For `COc1cnc([C@@H](OC)[C@H](C)S(=O)(=O)Nc2nnc(-c3cncc(C)c3)n2-c2c(OC)cccc2OC)cn1` (single isomer, unassigned) [Example 311.0] the value was 0.26 nM; for `COc1cnc([C@@H](OC)[C@H](C)S(=O)(=O)Nc2nnc(-c3cncc(C)c3)n2-c2c(OC)cccc2OC)cn1` (single isomer, unassigned) [Example 312.0], 27 nM.
